Results: patent publication US6794397B2, “Substituted nicotinamides and analogs as activators of caspases and inducers of apoptosis and the use thereof” (Cytovia, Inc., priority 2000, dated 2004)
pIC50: −log10 of the molar value. Entries after “also recorded” stand apart in the source; their conditions may differ. Where two headings read alike, the source gives them in different places.

Experiments:
ZR75-1 = experiment: Caspase cascade activation assay (N-(Ac-DEVD)-N'-ethoxycarbonyl-R110 fluorogenic substrate) in ZR75-1 cells; assay type: cell-based, Human; settings: for EC50: read-out: EC50 (nM) caspase potency; for Caspase activity Ratio: ratio of net RFU of test compound to control, 0.16 to 10 μM final
Protocol: (§1) Human breast cancer cell lines T47D and ZR75-1 were grown according to media component mixtures designated by American Type Culture Collection +10% FCS (Invitrogen Corporation, Life Technologies Division), in a 5% CO2 −95% humidity incubator at 37° C. T47D and ZR75-1 cells were maintained at a cell density between 30 and 80% confluency at a cell density of 0.1 to 0.6×10^6 cells/ml. Cells were harvested at 600xg and resuspended at 0.65×10^6 cells/ml into appropriate media +10% FCS. An aliquot of 45 μl of cells was added to a well of a 96-well microtiter plate containing 5 μl of a 10% DMSO in RPMI-1640 media solution containing 1.6 to 100 μM of N-(4-methoxy-2-nitrophenyl)-3-pyridinecarboxamide or other test compound (0.16 to 10 μM final). An aliquot of 45 μl of cells was added to a well of a 96-well microtiter plate containing 5 μl of a 10% DMSO in RPMI-1640 media solution without test compound as the control sample. The samples were mixed by agitation and then incubated at 37 C. for 24 h in a 5% CO2 −95% humidity incubator. After incubation, the samples were removed from the incubator and 50 μl of a solution containing 20 μM of N-(Ac-DEVD)-N′-ethoxycarbonyl-R110 (SEQ ID NO: 1) fluorogenic substrate (Cytovia, Inc.; WO99/18856), 20% sucrose (Sigma), 20 mM DTT (Sigma), 200 mM NaCl (Sigma), 40 mM Na PIPES buffer pH 7.2 (Sigma), and 500 μg/ml lysolecithin (Calbiochem) was added. The samples were mixed by agitation and incubated at room temperature. Using a fluorescent plate reader (Model 1420 Wallac Instruments), an initial reading (T=0) was made approximately 1-2 min after addition of the substrate solution, employing excitation at 485 nm and emission at 530 nm, to determine the background fluorescence of the control sample. After the 3 h incubation, the samples were read for fluorescence as above (T=3 h).
(§2) The Relative Fluorescence Unit values (RFU) were used to calculate the sample readings as follows:
(§3) RFU(T=3h)−Control RFU(T=0)=Net RFU(T=3h).
(§4) The activity of caspase cascade activation was determined by the ratio of the net RFU value for N-(4-methoxy-2-nitrophenyl)-3-pyridinecarboxamide or other test compound to that of control samples. The EC50 (nM) was determined by a sigmoidal dose-response calculation (Prism 2.0, GraphPad Software Inc.).

T47D [1] = experiment: Cell cycle arrest and apoptosis in T47D cells (propidium iodide flow cytometry); assay type: cell-based, Human; settings: 48 h
Protocol: T47D, a breast cancer cell line, was maintained and harvested as described in Example 71. […] As a control, cells were also incubated with equivalent amount of solvent as control (DMSO). Cells were harvested at 1,200 rpm and washed twice with 5 mM EDTA/PBS. Cells were then resuspended in 300 μl EDTA/PBS and 700 μl of 100% ethanol, vortexed and incubated at room temperature for 1 h. Samples were spun down at 1,200 rpm for 5 min and the supernatant was removed. A solution containing 100 μg/ml of propidium iodide and 1 mg/ml of RNAse A (fresh) was added to the samples and incubated for 1 h at room temperature. Samples were then transferred to 12×75 mm polystyrene tubes and analyzed on a flow cytometer. All flow cytometry analyses were performed on FACScalibur (Becton Dickinson) using Cell Quest analysis software. On the x-axis is plotted the fluorescence intensity and on the y-axis is plotted the number of cells with that fluorescence intensity. […] An increase in the sub-diploid DNA content of cells (marker M1 region, FIG. 3) is also seen to increase from 2% to 25% with compound treatment. The sub-diploid amount of DNA (M1) is indicative of apoptotic cells which have undergone DNA degradation or fragmentation.

HeLa cells = experiment: Inhibition of proliferation / colony formation of HeLa cells; assay type: cell-based; settings: Homo sapiens, 48 hr treatment, colonies counted after 5-7 days
Protocol: HeLa cells were grown according to media component mixtures designated by American Type Culture Collection +10% FCS (Invitrogen Corporation, Life Technologies Division), in a 5% CO2 −95% humidity incubator at 37° C. In a well of a 96 well plate, 30,000 cells were seeded and treated with compound at the indicated concentrations for 48 hr in a 5% CO2−95% humidity incubator at 37° C. Control wells were treated with the same amount of solvent (DMSO) as the compound samples. After the indicated treatment time, the supernatant was removed to a sterile culture tube and the wells washed with phosphate buffered saline, and the adherent cells trypsinized for 5 min. The trypsinzed cells were added to the culture supernatant, cells were collected (1,200 rpm, 10 min), washed with phosphate buffered saline, and resuspended in fresh media. The cells were counted for trypan blue negative cells, and the cells were diluted with fresh media to 1,000 cells/ml. To a well of a 24-well plate, 0.1 ml of the cell suspension was added along with 1 ml of fresh media (cell suspensions were passed through a 22G needle several times just before plating to form single cell suspensions). […] Colonies are counted when the sizes reached greater than 50 cells per colony. […] Colonies are rinsed with water and the colonies counted and the fraction surviving expressed as the percentage of the number of control colonies.

T47D [2] = experiment: Caspase cascade activation assay (N-(Ac-DEVD)-N'-ethoxycarbonyl-R110 fluorogenic substrate) in T47D cells; assay type: cell-based, Human; settings: 24 h incubation; for EC50: read-out: EC50 (nM) caspase potency; for Caspase activity Ratio: ratio of net RFU of test compound to control, 0.16 to 10 μM final
Protocol: as §1, §2, §3, §4

Jurkat cells [3] = experiment: Nuclear fragmentation in Jurkat cells (Syto16 staining); assay type: cell-based; settings: 5 μM, 24 h, Syto16 stain
Protocol: The ability of N-(4-methoxy-2-nitrophenyl)-3-pyridinecarboxamide to induce nuclear fragmentation was tested by treatment of Jurkat cells with the test compound followed by staining of the nucleus with Sytol6, a fluorescent DNA dye (Molecular Probes, Eugene, Oreg.). The nuclei of Jurkat cells treated with vehicle control (DMSO) are seen to be round with dispersed chromatin that is moderately stained with Sytol6 (FIG. 1A).

Jurkat cells [4] = experiment: Mitotic arrest in Jurkat cells (mitotic figures counted); assay type: cell-based; settings: 0.02 μM to 5 μM, 6 h
Protocol: Jurkat cells were incubated with a range of concentrations of N-(4-methoxy-2-nitrophenyl)-3-pyridinecarboxamide (0.02 μM to 5 μM) for 6 h under normal growth conditions; control cultures were treated with DMSO vehicle. The cells were then treated for 20 min. with 800 nM Syto 16 (Molecular Probes, Eugene, OR). Cytospin preparations were then prepared and the samples were viewed by fluorescent microscopy using a fluorescein filter set. For each concentration of test compound, the number of mitotic figures were counted and expressed as a percentage of the total number of cells. Three fields from each condition were evaluated and the mean and SEM were calculated and plotted as a function of drug concentration (FIG. 2).

[5] = Homo sapiens, ZR-75-1, 24 h incubation, sigmoidal dose-response
[6] = Homo sapiens, sigmoidal dose-response
[7] = 24 h incubation, sigmoidal dose-response

| EC50 (ZR75-1; [5]) [nM] | pIC50 (HeLa cells) | EC50 (T47D [2]; [6]) [nM] | EC50 (ZR75-1; [7]) [nM] | EC50 (T47D [2]; sigmoidal dose-response) [nM] | EC50 (nM) caspase potency (ZR75-1; [7]) | EC50 (nM) caspase potency (T47D [2]; sigmoidal dose-response) | SMILES | Caspase activity Ratio (ZR75-1; 24 h incubation) | G1 (M2) cells (T47D [1]; 1 μM) | G2/M phase (M4) cells (T47D [1]; 1 μM) | sub-G1 / sub-diploid DNA content of cells (M1) (T47D [1]; 1 μM) | Caspase activity Ratio (T47D [2]) | Nuclear fragmentation (nuclear morphology) (Jurkat cells [3]) | G1 (M2) cells (T47D [1]; 10 μM) | G2/M DNA content (M4) cells (T47D [1]; 10 μM) | sub-diploid DNA content of cells (M1), in words (T47D [1]; 10 μM) | sub-diploid DNA content of cells (M1) (T47D [1]; 10 μM, control 2%) [%] | Mitotic arrest (Jurkat cells [4]) |
| --- | --- | --- | --- | --- | --- | --- | --- | --- | --- | --- | --- | --- | --- | --- | --- | --- | --- | --- |
| 77 | ~7.00 | 153 | – | – | – | – | CCOc1ccc(NC(=O)c2ccc(Cl)nc2)c([N+](=O)[O-])c1 [Example 8, 6-Chloro-N-(4-ethoxy-2-nitrophenyl)-3-pyridinecarboxamide] | 6.3 | a reduction in the G1(M2) | accumulation of T47D cells in the G2/M phase; also recorded: an increase in the G2/M (M4) | increase substantially over control cells | 5.0 | – | – | – | – | – | – |
| – | – | – | 4510 | 7330 | – | – | COc1ccc(NC(=O)c2ccc(Cl)[n+]([O-])c2)c([N+](=O)[O-])c1 [Example 28, 6-Chloro-N-(4-methoxy-2-nitrophenyl)-1-N-oxide-3-pyridinecarboxamide] | 5.1 | – | – | – | 2.4 | – | – | – | – | – | – |
| 1000 | – | 1800 | – | – | – | – | COc1ccc(NC(=O)c2cccnc2)c([N+](=O)[O-])c1 [Example 29, N-(4-Methoxy-2-nitrophenyl)-3-pyridinecarboxamide] | 6.4 | – | – | – | 5.8 | shrunken and fragmented nuclei | a reduction in the G1(M2) | increase in G2/M DNA content; also recorded: an increase in the G2/M (M4) | increase | 25 | effective inducer of mitotic arrest; also recorded: increasing percent of mitotic arrest with increasing drug concentration |
| – | – | – | – | – | Inactive | Inactive | CCOc1ccc(N(C)C(=O)c2ccc(Cl)nc2)c([N+](=O)[O-])c1 [Example 30, 6-Chloro-N-(4-ethoxy-2-nitrophenyl)-N-methyl-3-pyridinecarboxamide] | Inactive | – | – | – | Inactive | – | – | – | – | – | – |
